The NIST ThermoML archive (doi:10.1021/je100552a)
Numbers after ± are expanded uncertainties.

Tests used:
[1] = 101.33 kPa, Liquid; for viscosity: Capillary tube (Ostwald / Ubbelohde) method; for mass density: Vibrating tube method
[2] = refractive index (Na D-line) (dimensionless); details: 101.33 kPa, Liquid, Standard Abbe refractometry

SMILES | viscosity ([1]; 298.15 K) [mPa·s] | mass density ([1]; 298.15 K) [kg/m3] | viscosity ([1]; 303.15 K) [mPa·s] | mass density ([1]; 303.15 K) [kg/m3] | viscosity ([1]; 308.15 K) [mPa·s] | mass density ([1]; 308.15 K) [kg/m3] | viscosity ([1]; 313.15 K) [mPa·s] | mass density ([1]; 313.15 K) [kg/m3] | refractive index ([2]; 298.15 K) | refractive index ([2]; 303.15 K) | refractive index ([2]; 308.15 K) | refractive index ([2]; 313.15 K)
ClCCCl [1,2-dichloroethane] | 0.7902 ± 0.0064 | 1246.7 ± 0.4 | 0.7291 ± 0.006 | 1240.8 ± 0.4 | 0.6739 ± 0.0056 | 1230.5 ± 0.4 | 0.6441 ± 0.0053 | 1225.6 ± 0.4 | 1.4416 ± 0.0005 | 1.4383 ± 0.0005 | 1.4336 ± 0.0005 | 1.4311 ± 0.0005
Brc1ccccc1 [bromobenzene] | 1.082 ± 0.0085 | 1489.4 ± 0.7 | 1.015 ± 0.008 | 1481.1 ± 0.7 | 0.954 ± 0.0076 | 1475.8 ± 0.7 | 0.878 ± 0.0071 | 1467.3 ± 0.6 | 1.5578 ± 0.0005 | 1.5538 ± 0.0005 | 1.5514 ± 0.0005 | 1.5468 ± 0.0005
Clc1ccccc1 [chlorobenzene] | 0.7568 ± 0.0062 | 1100.4 ± 0.3 | 0.7258 ± 0.0059 | 1094.9 ± 0.3 | 0.677 ± 0.0056 | 1089.4 ± 0.3 | 0.624 ± 0.0052 | 1083.9 ± 0.3 | 1.5222 ± 0.0005 | 1.5192 ± 0.0005 | 1.5163 ± 0.0005 | 1.5115 ± 0.0005
